# From patent publication US5320948A, “Cephalosporin C acylase” (Fujisawa Pharmaceutical Co., Ltd., priority 1990, dated 1994)
# Several values for one entry are separate records, joined by “and”; a condition that tells them apart may be missing. Equal values may be shown once. Read-outs that look alike come from different tables or passages of the source.
# B1: CC acylase N-176: new cephalosporin C acylase derived from Pseudomonas diminuta N-176, composed of α and β subunits (protein)
# chain: MTMAANTDRAVLQAALPPLSGSLPIPGLSASVRVRRDAWGIPHIKASGEADAYRALGFVHSQDRLFQMELTRRKALGRAAEWLGAEAAEADILVRRLGMEKVCRRDFEALGVEAKDMLRAYVAGVNAFLASGAPLPVEYGLLGAEPEPWEPWHSIAVMRRLGLLMGSVWFKLWRMLALPVVGAANALKLRYDDGGRDLLCIPPGAEADRLEADLATLRPAVDALLKAMGGDASDAAGGGSNNWAVAPGRTATGRPILAGDPHRVFEIPGMYAQHHLACDRFDMIGLTVPGVPGFPHFAHNGKVAYCVTHAFMDIHDLYLEQFAGEGRTARFGNDFEPVAWSRDRIAVRGGADREFDIVETRHGPVIAGDPRDGAALTLRSVQFAETDLSFDCLTRMPGASTVAQLYDATRGWGLIDHNLVAGDVAGSIGHLVRARVPSRPRENGWLPVPGWSGEHEWRGWIPHEAMPRVIDPPGGIIVTANNRVVADDHPDYLCTDCHPPYRAERIMKRLVANPAFAVDDAAAIHADTLSPHVGLLRRRLEALGARDDSAAEGLRQMLVAWDGRMDAASEVASAYNAFRRALTRLVTDRSGLEQAISHPFAAVAPGVSPQGQVWWAVPTLLRDDDAGMLKGWSWDQALSEALSVASQNLTGRSWGEEHRPRFTHPLATQFPAWAGLLNPASRPIGGDGDTVLANGLVPSAGPQATYGALSRYVFDVGNWDNSRWVVFHGASGHPASAHYADQNAPWSDCAMVPMLYSWDRIAAEAVTSQELVPA
# Legend:
# CC acylase N-176 [1] = test: Determination of inhibition constants (Ki) for reaction products, GL-7ACA acylase activity; type: biochemical, Pseudomonas diminuta N-176; conditions: for mode of inhibition: Lineweaver-Burk plots in absence and presence of inhibitor; for Ki: substrate GL-7ACA, 0.1M glycine buffer pH 9, 37° C., 3 min
# Procedure: Enzyme activity was assayed in the presence of 7-ACA or glutaric acid. For determination of Ki of 7-ACA, reaction mixtures (200 μl) containing 0.1M glycine buffer (pH 9), 0.26-2.08 μmole of GL-7ACA, 0.182-1.0 μmole of 7-ACA and 1 μg of enzyme was incubated at 37° C. for 3 min. For determination of Ki of glutaric acid, reaction mixture (200 μl) containing 0.1M glycine buffer (pH 9), 0.096-2.08 μmole of GL-7ACA, 0.25-0.5 μmole of glutaric acid and 0.5 μg of the enzyme was incubated at 37° C. for 3 min. […] Ki values were calculated from the apparent Michaelis constants (Kmapp), Km and Vmax.
# CC acylase N-176 [2] = test: Substrate profile of CC acylase N-176, HPLC assay; type: biochemical, Pseudomonas diminuta N-176; conditions: percentage compared to the activity for GL-7ACA; 2 mg substrate, 20 μg enzyme, pH 9, 50° C., 2 min
# Procedure: (§1) Transformant colonies were picked up and grown overnight at 30° C. in 1 ml of 2% Bouillon (Eiken Chemical Co., Ltd., Japan) supplemented with 1 mM […] (IPTG: Sigma Chemical Co., Ltd., U.S.A.). Cells were harvested by centrifugation and resulting cell pellets were used for assay. Reaction mixture (200 μl) containing 100 mM phosphate (pH 8), 2 mg of GL-7ACA or cephalosporin C Na and cell pellets were thoroughly mixed and incubated for 10 min at 37° C. The reaction was terminated by the addition of 200 μl of 4% acetic acid. Samples were applied to a Inertsil ODS-2 column (4.6 mm×150 mm)(Gasukuro Kogyo Co., Ltd., Japan) and elution was performed with 0.567 g/l of Na2 PO4, 0.36 g/l of KH2 PO4 and 2-4% methanol. 7ACA was detected with absorption at 254 nm.
# Enzyme activity was determined by HPLC assay. Reaction mixture (200 μl) containing 100 mM glycine buffer (pH 9), 2 mg of a substrate and 20 μg of the enzyme was incubated at 50° C. for 2 min and the reaction was terminated by addition of 4% acetic acid. The relative enzyme activity was expressed as a percentage compared to the activity for GL-7ACA. To be noted, acylase activity for cephalosporin C was examined also by detecting the production of α-aminoadipic acid with the amino acid analyzer (Hitachi Co., Ltd., Japan).
# CC acylase N-176 [3] = test: Specific enzyme activity, HPLC assay (Vmax and Km by Lineweaver-Burk plot); type: biochemical, Pseudomonas diminuta N-176; conditions: substrate of CC acylase N-176, 100 mM glycine buffer pH 9, 37° C., 2 min; for Km: read-out: Michaelis constant (Km)
# Procedure: as §1
# The activity of the cephalosporin C acylase was determined by HPLC assay. Reaction mixtures (200 μl) containing 100 mM glycine buffer (pH 9), 1.25-40 mM Cephalosporin C Li and 19 μg of the enzyme is used for assay of cephalosporin C acylase, meanwhile for assay of GL-7ACA acylase activity, reaction mixture (200 μl) containing 100 mM glycine buffer (pH 9), 0.48-10.4 mM GL-7ACA and 0.5 μg of the enzyme is used. Reaction mixtures were incubated for 2 min at 37° C. and the reaction was terminated by addition of 200 μl of 4% acetic acid. Conditions for HPLC were the same as those described in Example 1.3. All assays used later in this section was HPLC method. Specific enzyme activity was expressed as unit per mg of protein. Protein concentrations were determined by Bio-Rad protein assay kit (Bio-Rad Co., Ltd., U.S.A.) with bovine serum albumin as a standard. Maximum specific enzyme activity (Vmax) and Michaelis constant (Km) were calculated from slope and intersection which were obtained by Lineweaver-Burk plot (Cf. M. Dixon and E. C. Webb, Enzymes, Longmans, London, 1958). Maximum specific enzyme activity of CC acylase N-176 was 100 and 3.1 units/mg for GL-7ACA and cephalosporin C, respectively.
# CC acylase N-176 [4] = type: biochemical, Pseudomonas diminuta N-176; conditions: pH 9
# Procedure: Effect of p-chloromercuribenzoate (pCMB, Sigma Chemical Co., Ltd.), phenylmethylsulfonyl fluoride (PMSF, Sigma) and ethylenediaminetetraacetic acid (EDTA, Nacalai Tesque Inc., Japan) on the activity of CC acylase N-176 was examined as follows. Four μg of CC acylase N-176 was treated at 37° C. for 4 hours with 0.1 or 1.0 mM pCMB, 0.1, 1.0, 2.0 or 5.0 mM PMSF, or 1.0 or 5.0 mM EDTA in 200 μl of 0.1M glycine buffer (pH 9). Residual activity of the treated enzyme was assayed by adding 22 μl of GL-7ACA (100 mg/ml) as a substrate to the mixture The reaction was performed at 37° C. for 2 min. Residual activity was expressed as a percentage compared to the activity of the enzyme treated with blank solution.
# Optimum pH of the enzyme = type: biochemical; conditions: 0.1M buffers pH 6-10, 37° C., 2 min
# Procedure: Reaction mixture (200 μl) containing 0.1M buffer (phosphate buffer between pH 6-8, Tris HCl buffer between pH 7-9 and glycine buffer between pH 8-10), 2 mg of GL-7ACA or 3.3 mg of cephalosporin C Li and 3 μg of the enzyme was used. The reaction was performed at 37° C. for 2 min. Optimum pH for the enzyme was 9.
# [5] = Optimum temperature of the enzyme; type: biochemical; conditions: 0.1M glycine buffer pH 9, 2 mg GL-7ACA, 2 min, 25° to 60° C.
# Procedure: Reaction mixture (200 μl) containing 0.1M glycine buffer (pH 9), 2 mg of GL-7ACA and 2 μg of the enzyme were incubated for 2 min at various temperature from 25° to 60° C. The optimum temperature was 50° C.
# [6] = Determination of isoelectric point (pI) by analytical isoelectric focusing; type: physicochemical; conditions: 4% polyacrylamide gel, Ampholine pH range 3.5-10
# Procedure: Analytical isoelectric focusing of CC acylase N-176 was performed according to the method of Olson et al(Cf.FEMS Microbiol. Lett. 1, 157-162(1977)). Purified acylase preparation was applied on thin layer of 4% polyacrylamide gel containing 2% Ampholine pH range 3.5-10 (Pharmacia LKB Biotechnology, Sweden). The proteins were electrofocused for 2 hours at 100 volts using isoelectric focusing apparatus SJ-1071EC (ATTO Co., Ltd., Japan). After electrofocusing, the gel was stained with Coomassie Brilliant Blue R-250 and the isoelectric point was determined from the calibration curve made with pI markers (Pharmacia LKB Technology) which were run simultaneously with the sample. The pI value of CC acylase N-176 was estimated to be 4.5.
# [7] = inhibitor 0.1 mM, treated at 37° C. for 4 hours, substrate GL-7ACA
# [8] = inhibitor 1.0 mM, treated at 37° C. for 4 hours, substrate GL-7ACA
molecule,measurement,setting,value
"CC(=O)OCC1=C(C(=O)O)N2C(=O)[C@@H](N)[C@H]2SC1 [7-ACA, 7-aminocephalosporanic acid]",mode of inhibition,CC acylase N-176 [1],competitive
same,Ki,CC acylase N-176 [1],1400 µM
"CC(=O)OCC1=C(C(=O)O)N2C(=O)[C@@H](NC(=O)CCCCC(=O)O)[C@H]2SC1 [Adipyl 7ACA, 7(5-carboxypentanamido)-3-acetoxymethyl-3-cephem-4-carboxyli acid]",Relative enzyme activity,CC acylase N-176 [2],19%
CC(=O)OCC1=C(C(=O)O)N2C(=O)[C@@H](NC(=O)CCC[C@@H](N)C(=O)O)[C@H]2SC1 [Cephalosporin C],Maximum specific enzyme activity (Vmax),CC acylase N-176 [3],3.1 units/mg
same,Km,CC acylase N-176 [3],4.8 mM
same,Relative enzyme activity,CC acylase N-176 [2],4%
CC(=O)OCC1=C(C(=O)O)N2C(=O)[C@@H](NC(=O)Cc3cccs3)[C@H]2SC1 [Cephalothin],Relative enzyme activity,CC acylase N-176 [2],0.08%
"O=C(O)CN(CCN(CC(=O)O)CC(=O)O)CC(=O)O [EDTA, ethylenediaminetetraacetic acid]",Residual enzyme activity (%),CC acylase N-176 [4],91% and 73%
"CC(=O)OCC1=C(C(=O)O)N2C(=O)[C@@H](NC(=O)CCCC(=O)O)[C@H]2SC1 [Glutaryl 7ACA, 7(4-carboxybutanamdio)-3-acetoxymethyl-3-cephem-4-carboxylic acid]",Maximum specific enzyme activity (Vmax),CC acylase N-176 [3],100 units/mg
same,Km,CC acylase N-176 [3],2.6 mM
same,Relative enzyme activity,CC acylase N-176 [2],100%
CC(=O)N[C@H](CCCC(=O)N[C@@H]1C(=O)N2C(C(=O)O)=C(COC(C)=O)CS[C@H]12)C(=O)O [N-Acetylcephalosporin C],Relative enzyme activity,CC acylase N-176 [2],0.1%
"CC(=O)OCC1=C(C(=O)O)N2C(=O)[C@@H](NC(=O)CCC[C@@H](NC(=O)c3ccccc3)C(=O)O)[C@H]2SC1 [N-Benzyoylcephalosporin C, N-benzoylcephalosporin C]",Relative enzyme activity,CC acylase N-176 [2],0.0003%
"O=S(=O)(F)Cc1ccccc1 [PMSF, phenylmethylsulfonyl fluoride]",Residual enzyme activity (%),CC acylase N-176 [4]; [7],96%
same,Residual enzyme activity (%),CC acylase N-176 [4]; [8],91%
same,Residual enzyme activity (%),"CC acylase N-176 [4]; inhibitor 2.0 mM, treated at 37° C. for 4 hours, substrate GL-7ACA",79%
same,Residual enzyme activity (%),"CC acylase N-176 [4]; inhibitor 5.0 mM, treated at 37° C. for 4 hours, substrate GL-7ACA",62%
"CC(=O)OCC1=C(C(=O)O)N2C(=O)[C@@H](NC(=O)CCC(=O)O)[C@H]2SC1 [Succinyl 7ACA, 7(3-carboxypropionamido)-3-acetoxymethyl-3-cephem-4-carboxylic acid]",Relative enzyme activity,CC acylase N-176 [2],32%
O=C(O)CCCC(=O)O [glutaric acid],mode of inhibition,CC acylase N-176 [1],competitive
same,Ki,CC acylase N-176 [1],2500 µM
"O=C(O)c1cc[c]([Hg][Cl])cc1 [pCMB, p-chloromercuribenzoate]",Residual enzyme activity (%),CC acylase N-176 [4]; [7],7.8%
same,Residual enzyme activity (%),CC acylase N-176 [4]; [8],4.6%
B1,Optimum pH,Optimum pH of the enzyme,9
same,optimum temperature,[5],50 °C
same,pI value,[6],~4.5
